Entries after “also recorded” stand apart in the source; their conditions may differ. Each block holds one molecule with its values, some of them ahead of it.
Assays:
[1] = cited from earlier work
[2] = Stability of the tracer in its final formulation; assay type: physicochemical; details: up to 2.5 h after the end of the synthesis
Protocol: The three-step radiosynthesis provided 0.56-1.09 GBq of ^11C—CSar (5) with a radiochemical yield of 13±3% (mean±SD; n=7, decay-corrected) and with radiochemical purity >99% within 40 min. The radiochemical yield of the intermediate ^11C-cholylsarcosine methyl ester 4 was approximately 20% and the deprotection proceeded with full conversion to give ^11C—CSar exclusively.

[3] = Dynamic PET/CT with arterial blood sampling after intravenous ^11C—CSar in pigs; assay type: in vivo, pig
Protocol: Three pigs (3-month old female Danish Landrace and Yorkshire cross-breed; body weight 35-40 kg) were fasted for 18 h with free access to water. Each animal was premedicated with midazolam and s-ketamine, anaesthetized with a mixture of midazolam, s-ketamine and propofol, and mechanically ventilated as previously described (Sørensen M. Munk O L, Mortensen F V, et al. Hepatic uptake and metabolism of galactose can be quantified in vivo by 2-[^18F]fluoro-2-deoxy-galactose positron emission tomography. Am J Physiol Gastrointest Liver Physiol. 2008; 295:G27-G36). The animal was placed on a thermostatically-controlled heating blanket, keeping the rectal temperature 38.5-39.5° C. By adjusting the mechanical respiration, arterial blood pCO2, pO2, and pH were kept between 5.3-7.2 kPa, 12-25 kPa, and 7.35-7.45, respectively. Blood glucose was 5.0-6.7 mM. Catheters (Cordis) were inserted into the femoral vein and artery for intravenous administrations and blood sampling, respectively. After completion of the experiment, the animal was euthanized with an overdose of pentobarbital (100 mg/kg).
For PET/CT studies, the pig was placed on the back in a Siemens Biograph 64 Truepoint PET/CT camera with a 21 cm transaxial PET field-of-view. A CT scan (250 effective mAs with CAREDose4D, 120 kV, pitch 1.0, slice thickness 2.0 mm) was performed for definition of anatomical structures and attenuation correction of the PET recordings.
During the dynamic PET recordings of Pig 1 and 2, blood samples (0.5 mL) were collected from the femoral artery at 12×5, 6×10, 6×30, 5×60, 8×600 seconds. The radioactivity concentrations in the samples were measured in a well counter (Packard Biosciences) that was cross-calibrated to the PET camera. Additional blood samples were collected 2, 5, 10, 20, 40, 60, and 90 min after tracer administration for determination of ^11C-metabolites in plasma.

[4] = Plasma free fraction by ultrafiltration; assay type: in vitro ADME; details: female, Danish Landrace and Yorkshire cross-breed, pig
Protocol: The plasma free fraction of ^11C—CSar was determined in plasma samples collected prior to tracer administration in all three pigs; moreover, plasma was collected 10 seconds after end of cholyltaurine infusion in Pig 1, i.e. before the ^11C—CSar administration. The plasma samples were mixed with aliquots of ^11C—CSar, pipetted into ultrafiltration units (Pall Nanosep Centrifugal Device, Cut-off 30,000 D, Sigma-Aldrich) and centrifuged at room temperature (10 min at 12,000 rpm). Radioactivity in plasma and ultrafiltrates were counted in the well counter. Filter retention of the tracer was determined using sodium phosphate buffer solution (35 mM; pH 7.2). The free fraction was calculated as the ratio of radioactivity concentration in the ultrafiltrate corrected for filter retention to the total radioactivity concentration in plasma.

[5] = Whole-body PET/CT biodistribution and dosimetry (OLINDA/EXM), Pig 2; assay type: in vivo; details: for Absorbed dose estimate / Effective dose: Pig 2 (40 kg) extrapolated to 74-kg human; for Effective dose: ICRP 60
Protocol: For the biodistribution study, ^11C—CSar was administrated intravenously in Pig 2 followed by five whole-body PET scans with one minute between scans and with progressive increase of scan durations per bed-position, i.e. 1, 2, 3, 4 and 5 min, respectively. […] Other source organs (gallbladder, stomach, small intestines, and kidneys) had non-uniform radioactivity distribution and for these organs, the total activity was estimated using a large VOI encompassing all accumulated radioactivity. For each source organ, the time course of the non-decay-corrected total radioactivity was generated. Data were extrapolated from pig (40 kg) to human (74 kg) and recalculated into time courses of fractions of injected dose (% ID). Residence times were computed as the trapezoidal sum of the time course of % ID assuming that the radioactivity decayed only by physical decay after the last scan. Residence time for the rest of the body was calculated as the total body residence time (without voiding) minus the sum of the residence times from the source organs. The residence times were entered into OLINDA/EXM 1.0 (Stabin M G, Sparks R B, Crowe E. OLINDA/EXM: The second-generation personal computer software for internal dose assessment in nuclear medicine. J Nucl Med. 2005; 46:1023-1027) to compute absorbed doses using the male reference phantom and to obtain effective dose values according to ICRP 60.

[6] = Dynamic ^11C—CSar PET/CT in patients with cholestasis; assay type: in vivo, human; details: patient with BRIC-1 cholestasis; intravenous infusion
From the text: Two dynamic PET/CT studies in humans have been performed; one in a patient with inherited cholestasis and the other in a patient with drug-induced cholestasis. FIG. 4 illustrates the findings in the patient with inherited cholestasis; a person diagnosed with BRIC-1 (benign recurrent intrahepatic cholestasis), who was examined during a cholestatic episode with severe pruritus, hyperbilirubinemia and high plasma bile acid concentrations. […] Images from the second patient show similar changes.

[7] = system: transhepatic transport of ^11C—CSar; details: Pig 1
Protocol: Pigs 1 and 2 underwent 90-min dynamic PET/CT recordings (list-mode) using intravenous administration of 400 MBq ^11C—CSar. […] In Pig 2, a second ^11C—CSar administration was given to determine the biodistribution of the tracer by means of whole-body PET/CT recordings. In both pigs, at least 6 half-lives of the ^11C-isotope (half-live: 20.4 min) were allowed to pass between tracer administrations.
The decay-corrected dynamic PET data were reconstructed using the iterative TrueX algorithm (3 iterations, 21 subsets) and post-filtered using a 3 mm Gaussian filter yielding 3D-images of 168×168×109 voxels. Time-activity curves (TACs) were generated from volumes of interest (VOIs) drawn in liver tissue, intrahepatic bile ducts, and choledochus using fused PET/CT images.

[8] = cholyltaurine pretreatment vs. without

Molecule: C[C@H](CCC(=O)N(C)CC(=O)O)[C@H]1CC[C@H]2[C@@H]3[C@H](O)C[C@@H]4C[C@H](O)CC[C@]4(C)[C@H]3C[C@H](O)[C@]12C [CSar, N-methyl-cholylglycine]
toxicity to humans [1]: non-toxic
biotransformation during enterohepatic circulation ([1]; humans): without hepatic or intestinal biotransformation

alterations in chemical or radiochemical purity [2]: no alterations
time to peak of liver TAC ([3]; Pig 1 and 2, after intravenous tracer): ≤ 3 min
uptake into liver tissue ([3]; Pig 1 and 2, intravenous, dynamic PET/CT): rapid uptake
time of appearance of radioactivity in the intrahepatic bile ducts ([3]; after ^11C—CSar administration): approximately one
time at which radioactivity in liver tissue and bile ducts increased again (enterohepatic circulation) ([3]; after administration of the tracer): about 75 min
time to peak radioactivity concentration in the choledochus ([3]; after tracer administration): 4 to 6 min
time for liver TAC to decrease to very low concentrations ([3]; pig, in vivo): 30 to 40 min
time of appearance of radioactivity in the choledochus ([3]; relative to appearance in intrahepatic bile ducts): one minute later
fraction unbound ([4]; plasma collected after administration of cholyltaurine (Pig 1)): 1
fraction unbound ([4]; plasma collected before tracer administration, n=3): 0.18 ± 0.02
Absorbed dose estimate ([5]; Adrenals): 2.88 μGy/MBq
Absorbed dose estimate ([5]; Bone surface): 2.87 μGy/MBq
Absorbed dose estimate ([5]; Brain): 1.57 μGy/MBq
Absorbed dose estimate ([5]; Breasts): 1.66 μGy/MBq
Absorbed dose estimate ([5]; Gallbladder wall): 59.40 μGy/MBq
Absorbed dose estimate ([5]; Heart wall): 2.33 μGy/MBq
Effective dose [5]: 4.4 μSv/MBq
Effective dose ([5]; listed as 11C-CSar): 4.40 μSv/MBq
Absorbed dose estimate ([5]; Kidneys): 2.34 μGy/MBq
Absorbed dose estimate ([5]; Liver): 10.80 μGy/MBq
Absorbed dose estimate ([5]; Lower large intestine wall): 3.91 μGy/MBq
Absorbed dose estimate ([5]; Lungs): 2.06 μGy/MBq
Absorbed dose estimate ([5]; Muscle): 2.23 μGy/MBq
Absorbed dose estimate ([5]; Ovaries): 4.97 μGy/MBq
Absorbed dose estimate ([5]; Pancreas): 3.36 μGy/MBq
radioactivity in other organs, including the urinary bladder ([5]; Pig 2, whole-body PET scans): Virtually no radioactivity was detected
Absorbed dose estimate ([5]; Red marrow): 2.34 μGy/MBq
Absorbed dose estimate ([5]; Skin): 1.61 μGy/MBq
Absorbed dose estimate ([5]; Small intestine): 39.30 μGy/MBq
Absorbed dose estimate ([5]; Spleen): 2.37 μGy/MBq
Absorbed dose estimate ([5]; Stomach wall): 3.92 μGy/MBq
Absorbed dose estimate ([5]; Testes): 1.82 μGy/MBq
Absorbed dose estimate ([5]; Thymus): 1.88 μGy/MBq
Absorbed dose estimate ([5]; Thyroid): 1.78 μGy/MBq
Absorbed dose estimate ([5]; Total body): 2.83 μGy/MBq
Absorbed dose estimate ([5]; Upper large intestine wall): 7.07 μGy/MBq
Absorbed dose estimate ([5]; Urinary bladder wall): 2.67 μGy/MBq
Absorbed dose estimate ([5]; Uterus): 4.62 μGy/MBq
decrease of liver tissue TAC with time [7, 8]: significantly slower
rate of increase of TAC in the choledochus [7, 8]: much slower rate
maximum value of choledochus TAC relative to that without pretreatment ([7]; pretreatment with cholyltaurine): 2%
maximum radioactivity concentration of liver tissue TAC compared to studies without cholyltaurine ([7]; pretreatment with cholyltaurine 286 mg/kg i.v.): approximately 40%
Molecule: C[C@H](CCC(=O)N([11CH3])CC(=O)O)[C@H]1CC[C@H]2[C@@H]3[C@H](O)C[C@@H]4C[C@H](O)CC[C@]4(C)[C@H]3C[C@H](O)[C@]12C [^11C—CSar, N-(3α,7α,12α-Trihydroxy-24-oxocholan-24-yl)-N—[^11C]methyl-glycine]
peak radioactivity concentration of liver TAC ([3]; relative to arterial TAC): comparable to the peak concentration of the arterial TAC
organs with high accumulation of tracer relative to surrounding tissue ([5]; Pig 2, whole-body PET scans): liver, gallbladder, stomach, and small intestines
distribution of tracer on PET/CT 5 min after start of infusion [6]: still observed in the liver; also recorded: still ^11C—CSar in the liver
distribution of tracer on PET/CT 25 min after start of infusion [6]: accumulated in the liver and intrahepatic bile ducts

Molecule: cholyltaurine [reference compound]
effect on hepatic uptake and biliary excretion of ^11C—CSar ([7]; 286 mg/kg intravenous 50-second infusion before tracer): markedly inhibited

From US20150017093A1, “RADIOLABELED BILE ACIDS AND BILE ACID DERIVATIVES” (Aarhus Universitet, priority 2012, published 2015)
